# Measured values as given in US20220401574A1, “CARDIOPROTECTIVE MICROBUBBLE-LIPOSOMAL DRUG COMPLEXES” (UNIVERSITY OF PITTSBURGH - OF THE COMMONWEALTH SYSTEM OF …, priority 2019, published 2022).
# Marks after values point to notes of the source that are not given here.
# Tests used:
# [1] = cited from earlier work
# [2] = Biodistribution assessment with Cy5.5 as Dox analog; type: in vivo, mice; settings: organs harvested 3.5 hours after treatment, imaging
# Text: To assess bio-distribution of the drug post ultrasound treatment, Cy5.5 was used as a fluorescent Dox analog, injected i.v. as: Cy5.5-NH2, liposomal Cy5.5, liposomal Cy5.5+MB, Cy5.5LPX, and mice were euthanized 3.5 hrs later. Blood, tumor, spleen, kidney, liver, heart, lung, brain, skin on the back, muscle, femur (bone), and foot were imaged post-mortem and measured using a Xenogen IVIS 200 imaging system.
# This example determines the fate of liposomal lipids and Dox after in vivo delivery. […]
# To further quantify the distribution of Cy5.5-NH2, tumor, spleen, kidney, liver, heart, and lung were wet-weighed and […] of each tissue specimen were homogenized in 200 μL lysis buffer (50 mM HEPES, 50 mM NaCl, 1% Triton X-100, 5 mM EDTA, and 15 mM DTT) using a sonicator homogenizer (Sonicator Ultrasonic Processor XL, Misonix, Farmingdale, N.Y.) in Eppendorf tubes immersed in an ice-water. […]
# 50 μL supernatant of each specimen was added in black 384 well plates. Cy5.5-NH2 fluorescence intensity of 3 parallel samples of each organ was determined at Ex/Em 680/710 nm using a plate reader (Infinite 200 PRO, Tecan, Männedorf, Switzerland). […]
# [3] = system: MCA 205 murine sarcoma cells; test: Acute cell viability, trypan blue exclusion assay; type: cell-based; settings: 8 μg/mL, without US
# Procedure: (§1) MCA 205 murine sarcoma cells (generously provided by Dr. Walter J. Storkus at the University of Pittsburgh School of Medicine) were cultured in RPMI-1640 (Lonza, Biowhittaker, Basel, Switzerland), supplemented with 10% heat deactivated fetal bovine serum (FBS) and 1% penicillin-streptomycin at 37° C., and sub-cultured every 2 days and used before 8 passage.
# MCA 205 cells were suspended (5×10^4 cells in 500 μL media) in capped sterile polystyrene tubes. One of the following formulations was added to the tubes: DoxLPX, LDox, free Dox, ELPX, LDox+MB (e.g, unconjugated LDox and MB). […] Cell viability was evaluated 30 min later using the trypan blue exclusion assay where controls comprised identical tubes not exposed to US.
# Live cells and total cell number were counted on a hemocytometer using an inverted microscope (Motic AE21, Scientific Instrument Company, Campbell, Calif.). Acute cell viability was quantified as the number of the live cells (trypan blue negative) divided by the total cell numbers. Each treatment condition was repeated independently three times.
# MCA205 sarcoma = test: In vivo tumor treatment: tumor growth and survival; design: species or system mice; settings: for Median survival time ± standard deviation: US Pulse 3 for MB formulations
# Procedure: This example provides in vivo studies were performed using the Pulse 3 US regime. […] Treatments were infused over 15 min via internal jugular indwelling catheter on Days 0, 3, 7, 10.
# Murine sarcoma model. The animal protocols were approved by the University of Pittsburgh Institutional Animal Care and Use Committee and conform to the Policy on Human Care and Use of Laboratory Animals. Female mice were used due to their susceptibility to Dox cardiotoxicity. Lipshultz et al., “Assessment of dexrazoxane as a cardioprotectant in doxorubicin-treated children with high-risk acute lymphoblastic leukaemia: long-term follow-up of a prospective, randomised, multicentre trial” Lancet Oncol. […] Eight-week-old female C57BL/6 mice were obtained from Jackson lab and housed in the animal facility of the Division of Laboratory Animal Resources at the University of Pittsburgh.
# The pulse was repeated 500 times, with the pulse train repeated every 2.5 s to allow MB reperfusion into the target area. The overall duty cycle was 10%. The spatial peak temporal average intensity was 0.16 W/cm^2. The US treatment was continued for approximately 3-5 minutes after the intravenous MB infusion was completed to achieve complete MB destruction (e.g., ˜12-15 min total sonication time).
# Tumor growth was evaluated by high-resolution 3D US imaging of the tumor using automated scanning (Vevo2100, Visualsonics, Ontario, Canada) at 21 MHz with a 0.2-mm step size between cross-sections. Tumor cross-sections were manually outlined and tumor volumes were calculated from 3D reconstructions of the outlined area. This technique can measure subcutaneous tumors with an irregular shape with an accuracy of ±20 mm^3. Tumor growth over time was fit to an exponential curve (y)=X0·e^kt, where X0 represents initial tumor volume, and t stands for time in days. Doubling times (DT) were calculated as DT=(Ln2)/k.
# Treatments with various Dox formulations commenced when tumor volume reached 40-90 mm^3. The mice were randomly assigned to 1 of 6 treatment groups.
# On the first day of treatment, the tumor bearing mice were anesthetized with 2% isoflurane in oxygen and an indwelling catheter was placed in the internal jugular vein to facilitate multiple intravenous infusions over time. See, FIG. 1B. […] See, FIG. 1B.
# Tumor volume and cardiac function were serially evaluated for up to 42 days using ultrasound imaging. Echocardiography was performed every 7 days after the 1st treatment. On day 42, or if tumor volume exceeded 1,600 mm^3 before day 42, the mice were euthanized under deep anesthesia (5% isofluorane). Tumor and heart were harvested, washed with cold saline, then were cryopreserved or fixed with 10% formalin overnight, embedding in paraffin block and sectioning for further histology analysis.
# [4] = system: MCA 205 murine sarcoma cells; test: Long-term cell viability, alamaBlue assay; type: cell-based; settings: without US, 24, 48, 72 h
# Procedure: as §1
# Control conditions included cells mixed with free Dox, LDox, DoxLPX, ELPX without US treatment and untreated cells. After 1 h incubation, the wells were replaced with 500 μL fresh media. At 24, 48, and 72 h, the cells were incubated in 500 μL media containing 50 μg/mL alamaBlue® for 1 h. Thereafter, 100 μL media in each well was sampled and assayed on a plate reader (Beckman Coulter, DTX-880 Multimode detector, Brea, Calif.) at a wavelength of λex=530 nm and λem=590 nm. The same volume of media containing alamaBlue® was added in empty wells in the same 24-well plate to be used as the baseline absorbance. The percentage of viability at 24, 48, and 72 h was calculated by normalizing to that of untreated cells. As Dox-induced cytotoxicity takes about 48 hours to manifest, acute cytotoxicity (trypan blue assay) was attributed to ultrasound-microbubble interaction. […]
# [5] = design: risk of cardiotoxicity occurrence: dose or concentration left out as unconfirmed; settings: cited from earlier work
# [6] = system: left ventricular function; test: Assessment of cardiac function by serial echocardiography; type: in vivo, mice
# Procedure: Two-dimensional short-axis images were obtained using a high-resolution Micro-Ultrasound system (Vevo 2100, VisualSonics Inc.) in B-mode and M-mode from parasternal short-axis view. […] LV mass index was calculated as LV mass/mouse body weight (g) on the day of measurement. […] Tumor volume and cardiac function were serially evaluated for up to 42 days using ultrasound imaging. Echocardiography was performed every 7 days after the 1st treatment. […] Ejection fraction […] and left ventricular (LV) mass index data within each treatment group were compared to that on day 0 (baseline) within the group using a two-tail t-test. The percentage of mice with changes in ejection fraction, fractional shortening and LV mass index, categorized as mild, moderate or severe, was compared between groups using Chi-square test, and differences between two groups were compared using Fisher's exact test. Kaplan-Meier survival curves were compared between groups using the log-rank test for trend.
# caspase-3 = test: Caspase-3 activity assay in heart tissue; type: in vivo, mice; settings: heart tissue homogenate
# Procedure: Heart tissue was washed twice with cold PBS and lysed in lysis buffer (50 mM HEPES, pH 7.4, with 5 Mm CHAPS, and 5 mM DTT). Tissue lysates were centrifuged at 10,000 rcf for 15 min, and the total protein concentration was measured using a BCA assay kit (Thermo Fisher Scientific, MA). Caspase-3 activity assay was performed in triplicate in 96-well plates. For each protease assay, 200 μL assay buffer (100 mM HEPES, pH 7.2, 10% sucrose, 0.1% CHAPS, 1 Mm Na-EDTA, and 2 mM DTT) containing 50 μM Ac-DEVD-AMC (Enzo life, Farmingdale, N.Y.) was incubated with 50 μg lysate protein at 37° C. for 1 h.
# Caspase-3 activity was measured by AMC liberation from Ac-DEVD-AMC substrate at 380/460 nm using a plate reader (Beckman Coulter, DTX-880 Multimode detector, Brea, Calif.). Relative fluorescence of substrate control was subtracted as background emission. Free AMC (Enzo life, NY) was used to make the standard curve: […]
# heart tissue = test: Cardiac histopathology (H&E) and fibrosis analysis (Sirius red/fast green); type: in vivo, mice; settings: for myocardial fibrosis / collagen deposition: Sirius red/fast green staining
# Procedure: Routine hematoxylin and eosin (H&E) stained heart tissue slides were made for histologic examination. Sirius red/fast green staining was performed on heart tissue sections post-fixed in paraffin blocks. Twenty-three (23) Images were obtained on an Olympus IX81 microscope interfaced with a digital CCD camera (Olympus DP71) and quantitated using ImageJ 1.5 software.
smiles,measurement,setting,value
"C[N+]1=C(/C=C/C=C/C=C2/N(CCCCCC(=O)NCCCCCCN)c3ccc4ccccc4c3C2(C)C)C(C)(C)c2c1ccc1ccccc21.Cl.[Cl-] [Cy5.5-NH2, Cyanine5.5-amine]",water solubility,[1],moderate water solubility
same,acid dissociation constant (pKa),[1]; primary amine group,higher than 7
same,ex vivo Cy5.5 fluorescence in organs,[2],noticeable Cy5.5 fluorescence in the heart and skeletal muscle
"COc1cccc2c1C(=O)c1c(O)c3c(c(O)c1C2=O)C[C@@](O)(C(=O)CO)C[C@@H]3O[C@H]1C[C@H](N)[C@H](O)[C@H](C)O1 [Dox, Doxorubicin]",cell membrane integrity,[3],did not change the cell membrane integrity
same,Median survival time ± standard deviation,"MCA205 sarcoma; 5 mg/kg equiv. Dox i.v., 4 treatments",28.0 ± 7.5 days
same,Median survival time ± standard deviation,"MCA205 sarcoma; 5 mg/kg equiv. Dox i.v., 4 treatments, listed as free Dox",28 days
same,prolongation of median survival,MCA205 sarcoma; as compared to controls,14%
same,tumor volume as % of original (baseline) tumor volume,MCA205 sarcoma; by Day 17.5,610%
same,Tumor doubling time,"MCA205 sarcoma; exponential fit of tumor volume, 5 mg/kg equiv. Dox i.v., 4 treatments","7.1 ± 1.0**^,# Day"
same,cytotoxicity / cell viability,[4]; listed as Free Dox,more cytotoxicity than DoxLPX in the absence of US
same,cytotoxicity / cell viability,[4]; listed as free Dox,"highest cytotoxicity at 24, 48, and 72 h"
same,risk of cardiotoxicity occurrence,[5]; clinically,26%
same,maximal tolerated cumulative dose,[5]; in vivo,400-550 mg/m2
same,"LVIDs, LVIDd change",[6]; Day 14 or Day 21 vs. Day 0,Significant increases
same,mice with severely increased LV mass index,[6]; Day 21 vs. Day 0,20.0%
same,mice with severe reduction in EF,[6]; day 21,40%
same,mice with severe reduction in FS,[6]; day 21,30%
same,LV mass index change,[6]; vs. Day 0,significantly increased LV mass index on day 14
same,LV mass over time,"[6]; vs. baseline, up to Day 21",significantly greater than baseline by Day 14
same,ejection fraction (EF) and fractional shortening (FS) over time,"[6]; vs. baseline, up to Day 21",progressive decline in ejection fraction (EF) and fractional shortening (FS)
same,caspase-3 activity in cardiac tissue,caspase-3,higher than that in mice treated with DoxLPX+US
same,myocardial fibrosis / collagen deposition,heart tissue,significantly more areas of patchy myocardial interstitial fibrosis and perivascular fibrosis
same,myocardial fibrosis / collagen deposition,heart tissue; listed as free Dox,induced moderate myocardial interstitial and perivascular fibrosis
same,histological damage to heart tissue,"heart tissue; hematoxylin/eosin staining, accumulative dosage 20 mg/kg",disorganization of myofibrillar arrays (first left panel of Dox group) and focal cytoplasmic vacuolization
